Drawing on US11440913B2, “Aminoimidazopyridazines as kinase inhibitors” (BRISTOL-MYERS SQUIBB COMPANY, priority 2017, dated 2022), this text covers IC50 for 24 compounds.

Test [1] concerns the target His-GST-TVMV-hRIPK1(1-324) (Homo sapiens (Human), UniProt Q13546). As to the kind of experiment: RIPK1 HTRF Binding Assay. The following applies: HTRF binding, 1 h at rt; read-out: RIPK1 (IC50). The gist of the method: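 HTRF probe-displacement binding: 1 nM His-GST-TVMV-hRIPK1(1-324) (baculovirus construct), 90.6 nM probe, 0.2 nM anti-GST-Tb in 20 mM HEPES, 10 mM MgCl2, 0.015% Brij-35, 4 mM DTT, 0.05 mg/mL BSA. Incubated 1 h at rt; FRET 520/495 nm ratio, inhibition relative to DMSO-only wells.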

The test system of test [2] is MLKL phosphorylation in HT29-L23 human colorectal adenocarcinoma cells. As to the kind of experiment: MLKL Phosphorylation High-Content Assay. The class given is cell-based. Conditions: 6 h, necroptosis induced with TNFα, SMAC mimetic and Z-VAD, read-out: pMLKL (IC50). Summed up: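 HT29-L23 cells pretreated 30 min at 37 °C with compound (6.25 to 0.106 μM final), then necroptosis induced with TNFα 35 ng/mL, SMAC mimetic 700 nM and Z-VAD 140 nM for 6 h. Fixed cells immunostained for MLKL pS358 and imaged; IC50 and Ymax from 4-parameter logistic fit.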

Where a name gives a salt, the structure may show the parent alone. Read-outs that look alike come from different tables or passages of the source.

His-GST-TVMV-hRIPK1(1-324), sequence (Q13546 1-324): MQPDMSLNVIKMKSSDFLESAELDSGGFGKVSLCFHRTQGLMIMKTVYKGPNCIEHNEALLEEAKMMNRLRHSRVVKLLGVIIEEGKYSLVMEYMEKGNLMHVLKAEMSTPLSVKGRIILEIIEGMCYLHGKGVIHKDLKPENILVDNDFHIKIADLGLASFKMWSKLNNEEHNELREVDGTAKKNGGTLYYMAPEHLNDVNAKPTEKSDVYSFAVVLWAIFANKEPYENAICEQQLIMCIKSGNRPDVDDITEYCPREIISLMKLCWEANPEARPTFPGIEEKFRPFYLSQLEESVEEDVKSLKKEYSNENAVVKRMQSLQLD

Take `CC(=O)Nc1nc2ccc(-c3cnc(C)c(C(=O)NCc4cc(OC(F)(F)F)ccc4F)c3)nn2c1C` [Example 253, 5-{2-acetamido-3-methylimidazo[1,2-b]pyridazin-6-yl}-N-{[2-fluoro-5-(trifluoromethoxy)phenyl]methyl}-2-methylpyridine-3-carboxamide]: the figures for the IC50 in test [1] and in test [2] (Homo sapiens) were 14 nM and 53 nM, respectively.
For the compound `COc1ncc(-c2ccc3nc(NC(C)=O)c(C)n3n2)cc1C(=O)NCc1cc(C(F)(F)F)ccc1F` [Example 254, 5-{2-acetamido-3-methylimidazo[1,2-b]pyridazin-6-yl}-N-{[2-fluoro-5-(trifluoromethyl)phenyl]methyl}-2-methoxypyridine-3-carboxamide], the IC50 came to 101 nM in test [1] and 66 nM in test [2] (Homo sapiens).
The matching figures for `COc1ncc(-c2ccc3nc(NC(C)=O)c(C)n3n2)cc1C(=O)NCc1ccc(F)c(OC(F)(F)F)c1` [Example 255, 5-{2-acetamido-3-methylimidazo[1,2-b]pyridazin-6-yl}-N-{[4-fluoro-3-(trifluoromethoxy)phenyl]methyl}-2-methoxypyridine-3-carboxamide]: 87 nM and 263 nM.
Consider `COc1ncc(-c2ccc3nc(NC(C)=O)c(C)n3n2)cc1C(=O)NCCC(C)c1ccccc1` (stereo not drawn) [Example 256, 5-{2-acetamido-3-methylimidazo[1,2-b]pyridazin-6-yl}-2-methoxy-N-(3-phenylbutyl)pyridine-3-carboxamide, TFA], for which the figures for the IC50 in test [1] and in test [2] (Homo sapiens) were 9 nM and 27 nM, respectively.
The matching figures for `COc1ncc(-c2ccc3nc(NC(C)=O)c(C)n3n2)cc1C(=O)NCc1cccc(OC(F)(F)F)c1` [Example 257, 5-{2-acetamido-3-methylimidazo[1,2-b]pyridazin-6-yl}-2-methoxy-N-{[3-(trifluoromethoxy)phenyl]methyl}pyridine-3-carboxamide, TFA]: 61 nM and 69 nM.
For `COc1ncc(-c2ccc3nc(NC(C)=O)c(C)n3n2)cc1C(=O)NCc1ccccc1OC(F)(F)F` [Example 258, 5-{2-acetamido-3-methylimidazo[1,2-b]pyridazin-6-yl}-2-methoxy-N-{[2-(trifluoromethoxy)phenyl]methyl}pyridine-3-carboxamide, TFA] the same measures were 72 nM and 57 nM.
With `[2H]C([2H])(Oc1c(F)cc(F)cc1CNC(=O)c1cc(-c2ccc3nc(NC(C)=O)c(C)n3n2)cnc1OC)C1CC1` [Example 259, N-({2-[cyclopropyl(deutero)methoxy]-3,5-difluorophenyl}methyl)-5-{2-acetamido-3-methylimidazo[1,2-b]pyridazin-6-yl}-2-methoxypyridine-3-carboxamide], the 50% inhibitory concentration (IC50) came to 3 nM in test [1] and 13 nM in test [2] (Homo sapiens).
The matching figures for `COCC(=O)Nc1cn2nc(-c3cnc(OC)c(C(=O)NCc4cc(OCC5CC5)ccc4F)c3)ccc2n1` [Example 260, N-{[5-(cyclopropylmethoxy)-2-fluorophenyl]methyl}-2-methoxy-5-[2-(2-methoxyacetamido)imidazo[1,2-b]pyridazin-6-yl]pyridine-3-carboxamide]: 18 nM and 80 nM.
For the compound `COCC(=O)Nc1cn2nc(-c3cnc(OC)c(C(=O)NCc4cc(F)cc(F)c4OCC4CC4)c3)ccc2n1` [Example 261, N-{[2-(cyclopropylmethoxy)-3,5-difluorophenyl]methyl}-2-methoxy-5-[2-(2-methoxyacetamido)imidazo[1,2-b]pyridazin-6-yl]pyridine-3-carboxamide, TFA], the IC50 in test [1] amounted to 7 nM; in test [2], 8 nM.
`COCC(=O)Nc1cn2nc(-c3cnc(OC)c(C(=O)NCc4cc(OC(F)(F)F)ccc4F)c3)ccc2n1` [Example 262, N-{[2-fluoro-5-(trifluoromethoxy)phenyl]methyl}-2-methoxy-5-[2-(2-methoxyacetamido)imidazo[1,2-b]pyridazin-6-yl]pyridine-3-carboxamide]: the figures for the IC50 in test [1] and in test [2] (Homo sapiens) were 39 nM and 74 nM, respectively.
In the case of `COc1ncc(-c2ccc3nc(NC(=O)C(C)C)cn3n2)cc1C(=O)NCc1ccccc1OC(F)(F)F` [Example 263, 2-methoxy-5-[2-(2-methylpropanamido)imidazo[1,2-b]pyridazin-6-yl]-N-{[2-(trifluoromethoxy)phenyl]-methyl}pyridine-3-carboxamide], the figures for the IC50 in test [1] and in test [2] (Homo sapiens) were 107 nM and 38 nM, respectively.
Take `COc1ncc(-c2ccc3nc(NC(=O)C(C)C)cn3n2)cc1C(=O)NCc1ccc(F)c(F)c1OCC1CC1` [Example 264, N-{[2-(cyclopropylmethoxy)-3,4-difluorophenyl]methyl}-2-methoxy-5-[2-(2-methylpropanamido)imidazo[1,2-b]pyridazin-6-yl]pyridine-3-carboxamide, TFA]: the IC50 in test [1] is 55 nM; in test [2], 240 nM.
For the compound `COc1ncc(-c2ccc3nc(NC(=O)C(C)C)cn3n2)cc1C(=O)NCc1cc(F)cc(F)c1OC1CCOCC1` [Example 265, N-{[3,5-difluoro-2-(oxan-4-yloxy)phenyl]methyl}-2-methoxy-5-[2-(2-methylpropanamido)imidazo[1,2-b]pyridazin-6-yl]pyridine-3-carboxamide], the figures for the IC50 in test [1] and in test [2] (Homo sapiens) were 3 nM and 7 nM, respectively.
`[2H]C([2H])(Oc1c(F)cc(F)cc1CNC(=O)c1cc(-c2ccc3nc(NC(C)=O)cn3n2)cnc1Cl)C1CC1` [Example 266, 2-chloro-N-({2-[cyclopropyl(deutero)methoxy]-3,5-difluorophenyl}methyl)-5-{2-acetamidoimidazo[1,2-b]pyridazin-6-yl}pyridine-3-carboxamide, TFA]: the IC50 in test [1] was 3 nM; in test [2] (Homo sapiens) it was 18 nM.
For `CC(=O)Nc1cn2nc(-c3cnc(Cl)c(C(=O)NCC[C@H](O)c4ccc(Cl)cc4)c3)ccc2n1` [Example 267, 2-chloro-N-[(3S)-3-(4-chlorophenyl)-3-hydroxypropyl]-5-{2-acetamidoimidazo[1,2-b]pyridazin-6-yl}pyridine-3-carboxamide] the same measures were 81 nM and 383 nM.
Take `CC(=O)Nc1cn2nc(-c3cnc(Cl)c(C(=O)NC(C)c4ccccc4OC(F)(F)F)c3)ccc2n1` (stereo not drawn) [Example 268, 2-chloro-5-{2-acetamidoimidazo[1,2-b]pyridazin-6-yl}-N-{1-[2-(trifluoromethoxy)phenyl]ethyl}pyridine-3-carboxamide]: the IC50 stood at 46 nM in test [1] and 73 nM in test [2] (Homo sapiens).
`CC(=O)Nc1cn2nc(-c3cnc(Cl)c(C(=O)NC(C)c4cc(C(F)(F)F)ccc4F)c3)ccc2n1` (stereo not drawn) [Example 269, 2-chloro-5-{2-acetamidoimidazo[1,2-b]pyridazin-6-yl}-N-{1-[2-fluoro-5-(trifluoromethyl)phenyl]ethyl}pyridine-3-carboxamide]: the IC50 in test [1] came out at 55 nM; in test [2] (Homo sapiens) it was 209 nM.
In the case of `CC(=O)Nc1cn2nc(-c3cnc(Cl)c(C(=O)NC(C)c4cc(C(F)(F)F)ccc4F)c3)ccc2n1` (stereo not drawn) [Example 270, 2-chloro-5-{2-acetamidoimidazo[1,2-b]pyridazin-6-yl}-N-{1-[2-fluoro-5-(trifluoromethyl)phenyl]ethyl}pyridine-3-carboxamide], the IC50 amounted to 23 nM in test [1] and 204 nM in test [2].
Consider `CC(=O)Nc1cn2nc(-c3cnc(Cl)c(C(=O)NC(C)c4ccccc4OC(F)(F)F)c3)ccc2n1` (stereo not drawn) [Example 271, 2-chloro-5-{2-acetamidoimidazo[1,2-b]pyridazin-6-yl}-N-{1-[2-(trifluoromethoxy)phenyl]ethyl}pyridine-3-carboxamide], for which the figures for the IC50 in test [1] and in test [2] were 49 nM and 129 nM, respectively.
For `CC(=O)Nc1cn2nc(-c3cnc(Cl)c(C(=O)NCc4cccc(OC(F)(F)F)c4)c3)ccc2n1` [Example 272, 2-chloro-5-{2-acetamidoimidazo[1,2-b]pyridazin-6-yl}-N-{[3-(trifluoromethoxy)phenyl]methyl}pyridine-3-carboxamide, TFA] the same measures were 26 nM and 122 nM.
Consider `CC(=O)Nc1cn2nc(-c3cnc(Cl)c(C(=O)NCc4cc(F)cc(F)c4OC(C)C4CCC4)c3)ccc2n1` (stereo not drawn) [Example 273, 2-chloro-N-{[2-(1-cyclobutylethoxy)-3,5-difluorophenyl]methyl}-5-{2-acetamidoimidazo[1,2-b]pyridazin-6-yl}pyridine-3-carboxamide, TFA], for which the IC50 in test [1] turned out to be 4 nM; in test [2] (Homo sapiens), 43 nM.
`CC(=O)Nc1cn2nc(-c3cnc(Cl)c(C(=O)NCc4cc(C(F)(F)F)ccc4Cl)c3)ccc2n1` [Example 274, 2-chloro-N-{[2-chloro-5-(trifluoromethyl)phenyl]methyl}-5-{2-acetamidoimidazo[1,2-b]pyridazin-6-yl}pyridine-3-carboxamide, TFA]: the IC50 was 11 nM in test [1] and 31 nM in test [2] (Homo sapiens).
In the case of `CC(=O)Nc1cn2nc(-c3cnc(Cl)c(C(=O)NCc4cc(C(F)(F)F)ccc4F)c3)ccc2n1` [Example 275, 2-chloro-5-{2-acetamidoimidazo[1,2-b]pyridazin-6-yl}-N-{[2-fluoro-5-(trifluoromethyl)phenyl]methyl}pyridine-3-carboxamide], the IC50 in test [1] came to 32 nM; in test [2] it was 52 nM.
The matching figures for `COc1nc(C)c(-c2ccc3nc(NC(C)=O)cn3n2)cc1C(=O)NC(C)c1cc(C(F)(F)F)ccc1F` (stereo not drawn) [Example 276, 5-{2-acetamidoimidazo[1,2-b]pyridazin-6-yl}-N-{1-[2-fluoro-5-(trifluoromethyl)phenyl]ethyl}-2-methoxy-6-methylpyridine-3-carboxamide]: 28 nM and 39 nM.
